{"source": "the supplement of paper PMC10307832", "assay_in_all_cases": "relative viability (nuclei count vs DMSO), 5 days (fraction); higher = more cells survive", "key": {"AZD6482 + Foretinib": {"compound": "Cc1cc([C@@H](C)Nc2ccccc2C(=O)O)c2nc(N3CCOCC3)cc(=O)n2c1 [AZD6482] + COc1cc2c(Oc3ccc(NC(=O)C4(C(=O)Nc5ccc(F)cc5)CC4)cc3F)ccnc2cc1OCCCN1CCOCC1 [Foretinib] (partner 0.25 µM)", "summary_of_the_method": "(§1)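 Relative viability is defined as nuclei in treated wells over nuclei in vehicle wells. Duplicate plates were run and medians reported. Lung cancer cell lines in 1536-well plates were dosed by pin tool one day after seeding, with one drug or with a fixed anchor-drug dose plus five library-drug doses (not always all listed) in √10 steps, and nuclei were counted after 5 days.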"}, "AZD6482 + Dasatinib": {"compound": "Cc1cc([C@@H](C)Nc2ccccc2C(=O)O)c2nc(N3CCOCC3)cc(=O)n2c1 [AZD6482] + Cc1nc(Nc2ncc(C(=O)Nc3c(C)cccc3Cl)s2)cc(N2CCN(CCO)CC2)n1 [Dasatinib] (partner 0.075 µM)", "summary_of_the_method": "as §1"}, "[1]": {"compound": "COc1cc2nc(N3CCCN(C)CC3)nc(NC3CCN(Cc4ccccc4)CC3)c2cc1OC + CC(=O)c1c(C)c2cnc(Nc3ccc(N4CCNCC4)cn3)nc2n(C2CCCC2)c1=O [Palbociclib] (partner 0.5 µM)", "summary_of_the_method": "as §1"}, "AZD6482 + Pemetrexed": {"compound": "Cc1cc([C@@H](C)Nc2ccccc2C(=O)O)c2nc(N3CCOCC3)cc(=O)n2c1 [AZD6482] + Nc1nc2[nH]cc(CCc3ccc(C(=O)N[C@@H](CCC(=O)O)C(=O)O)cc3)c2c(=O)[nH]1 [Pemetrexed] (partner 0.2 µM)", "summary_of_the_method": "as §1"}}}
{"cell line": "UMC-11", "values": [{"measurement": "relative viability", "setting": "AZD6482 + Foretinib; first compound 0.08 µM", "value": 1.01}, {"measurement": "relative viability", "setting": "AZD6482 + Foretinib; first compound 0.253 µM", "value": 0.988}, {"measurement": "relative viability", "setting": "AZD6482 + Foretinib; first compound 0.8 µM", "value": 0.997}, {"measurement": "relative viability", "setting": "AZD6482 + Foretinib; first compound 2.53 µM", "value": 0.815}, {"measurement": "relative viability", "setting": "AZD6482 + Foretinib; first compound 8 µM", "value": 1.13}, {"measurement": "relative viability", "setting": "AZD6482 + Dasatinib; first compound 0.08 µM", "value": 0.457}, {"measurement": "relative viability", "setting": "AZD6482 + Dasatinib; first compound 0.253 µM", "value": 0.48}, {"measurement": "relative viability", "setting": "AZD6482 + Dasatinib; first compound 0.8 µM", "value": 0.472}, {"measurement": "relative viability", "setting": "AZD6482 + Dasatinib; first compound 2.53 µM", "value": 0.416}, {"measurement": "relative viability", "setting": "AZD6482 + Dasatinib; first compound 8 µM", "value": 0.559}, {"measurement": "relative viability", "setting": "[1]; first compound 0.2 µM", "value": 0.374}, {"measurement": "relative viability", "setting": "[1]; first compound 0.6325 µM", "value": 0.389}, {"measurement": "relative viability", "setting": "[1]; first compound 2 µM", "value": 0.317}, {"measurement": "relative viability", "setting": "[1]; first compound 6.325 µM", "value": 0.259}, {"measurement": "relative viability", "setting": "AZD6482 + Pemetrexed; first compound 0.08 µM", "value": 0.752}, {"measurement": "relative viability", "setting": "AZD6482 + Pemetrexed; first compound 0.253 µM", "value": 0.822}, {"measurement": "relative viability", "setting": "AZD6482 + Pemetrexed; first compound 0.8 µM", "value": 0.811}, {"measurement": "relative viability", "setting": "AZD6482 + Pemetrexed; first compound 2.53 µM", "value": 0.633}, {"measurement": "relative viability", "setting": "AZD6482 + Pemetrexed; first compound 8 µM", "value": 0.738}]}
